Legend:
[1] = system: clinically isolated HIV strain T; type: cell-based; conditions: FR=EC50(mutant strain)/EC50(HIV-1 strain LAI)
Description: (§1) HIV- or mock-infected MT4 cells were incubated for five days in the presence of various concentrations of the inhibitor. […] Cell viability is measured by measuring the concentration of MTT, a yellow, water soluble tetrazolium dye that is converted to a purple, water insoluble formazan in the mitochondria of living cells only. Upon solubilization of the resulting formazan crystals with isopropanol, the absorbance of the solution is monitored at 540 nm. The values correlate directly to the number of living cells remaining in the culture at the completion of the five day incubation. The inhibitory activity of the compound was monitored on the virus-infected cells and was expressed as EC50 and EC90. These values represent the amount of the compound required to protect 50% and 90%, respectively, of the cells from the cytopathogenic effect of the virus. The toxicity of the compound was measured on the mock-infected cells and was expressed as CC50, which represents the concentration of compound required to inhibit the growth of the cells by 50%. The selectivity index (SI) (ratio CC50/EC50) is an indication of the selectivity of the anti-HIV activity of the inhibitor.
(§2) Because of the increasing emergence of drug resistant HIV strains, the present compounds were tested for their potency against clinically isolated HIV strains harboring several mutations.
(§3) As a measure of the broad spectrum activity of the present compounds, the fold resistance (FR) defined as FR=EC50(mutant strain)/EC50(HIV-1 strain LAI).

[2] = system: clinically isolated HIV strain I; type: cell-based; conditions: FR=EC50(mutant strain)/EC50(HIV-1 strain LAI)
Description: as §1, §2, §3

[3] = system: clinically isolated HIV strain J; type: cell-based; conditions: FR=EC50(mutant strain)/EC50(HIV-1 strain LAI)
Description: as §1, §2, §3

[4] = system: clinically isolated HIV strain H; type: cell-based; conditions: FR=EC50(mutant strain)/EC50(HIV-1 strain LAI)
Description: as §1, §2, §3

[5] = system: clinically isolated HIV strain O; type: cell-based; conditions: FR=EC50(mutant strain)/EC50(HIV-1 strain LAI)
Description: as §1, §2, §3

virus strain F (R13025) = assay: microbe, parasite or virus in culture; type: cell-based, HIV; conditions: FR=EC50(mutant strain)/EC50(HIV-1 strain LAI); strain F
Outline: (§4)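 HIV-infected MT4 cells were incubated five days with inhibitor, and viability was read by MTT reduction at 540 nm. EC50/EC90 are the concentrations protecting 50%/90% of cells from viral cytopathic effect. Fold resistance is EC50 against the clinical isolate divided by EC50 against HIV-1 LAI.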

virus strain S (R13080) = assay: microbe, parasite or virus in culture; type: cell-based, HIV; conditions: FR=EC50(mutant strain)/EC50(HIV-1 strain LAI); strain S
Outline: as §4

Row | SMILES | fold resistance (FR), strain T [1] | fold resistance (FR), strain I [2] | fold resistance (FR), strain J [3] | fold resistance (FR), strain H [4] | fold resistance (FR), strain O [5] | fold resistance (FR), strain F (virus strain F (R13025)) | fold resistance (FR), strain S (virus strain S (R13080))
1 | CC(C)CN(C[C@@H](O)[C@H](Cc1ccccc1)NC(=O)OCc1cccnc1)S(=O)(=O)c1ccc2nc(NCCN3CCNCC3)sc2c1 [Compound 58] | 27.0 | 0.7 | 2.0 | 1.6 | 1.7 | 2.1 | 4.4
2 | Cc1c(N)cccc1C(=O)N[C@@H](Cc1ccccc1)[C@H](O)CN(CC(C)C)S(=O)(=O)c1ccc2nc(NCCN3CCCC3)sc2c1 [Compound 45] | 103.0 | 4.0 | 1.1 | 1.2 | 1.3 | 17.3 | 19.9
3 | CC(C)CN(C[C@@H](O)[C@H](Cc1ccccc1)NC=O)S(=O)(=O)c1ccc2nc(NC(=O)CN3CCCC3)sc2c1 [Compound 55] | 26.2 | 9.1 | 26.2 | 10.0 | 26.2 | 26.2 | 26.2
4 | CC(C)CN(C[C@@H](O)[C@H](Cc1ccccc1)NC(=O)O[C@H]1CO[C@H]2OCC[C@H]21)S(=O)(=O)c1ccc2nc(N3CCN(C)C3=O)sc2c1 [Compound 25] | 619.8 | 3.5 | 6.0 | 4.7 | 5.6 | 26.0 | 42.5
5 | CC(=O)N(C)c1nc2ccc(S(=O)(=O)N(CC(C)C)C[C@@H](O)[C@H](Cc3ccccc3)NC(=O)O[C@H]3CCOC3)cc2s1 [Compound 79] | 893.1 | 3.9 | 9.8 | 12.1 | 7.4 | 113.0 | 313.0
6 | Cc1c(N)cccc1C(=O)N[C@@H](Cc1ccccc1)[C@H](O)CN(CC(C)C)S(=O)(=O)c1ccc2nc(NC(=O)CN3CCCC3)sc2c1 [Compound 62] | 277.9 | 2.8 | 2.4 | 3.2 | 2.7 | 14.5 | 16.1
7 | CC(=O)N(C)c1nc2ccc(S(=O)(=O)N(CC(C)C)C[C@@H](O)[C@H](Cc3ccccc3)NC(=O)OCc3cncs3)cc2s1 [Compound 80] | 457.6 | 3.9 | 17.6 | 5.7 | 8.1 | 17.4 | 26.6
8 | Cc1cccc(C)c1OCC(=O)N[C@@H](Cc1ccccc1)[C@H](O)CN(CC(C)C)S(=O)(=O)c1ccc2nc(NCCN3CCNCC3)sc2c1 [Compound 59] | 22.2 | 1.2 | 1.7 | 1.2 | 2.0 | 2.3 | 4.7
9 | CCOC(=O)N(CCN(C)C)c1nc2ccc(S(=O)(=O)N(CC(C)C)C[C@@H](O)[C@H](Cc3ccccc3)NC(=O)O[C@H]3CO[C@H]4OCC[C@H]43)cc2s1 [Compound 28] | 12.7 | 1.4 | 0.7 | 1.8 | 0.8 | 2.3 | 4.4
10 | CC(C)CN(C[C@@H](O)[C@H](Cc1ccccc1)NC(=O)OCc1cncs1)S(=O)(=O)c1ccc2nc(NCCN3CCCC3)sc2c1 [Compound 49] | 114.0 | 2.9 | 5.5 | 3.6 | 3.9 | 12.8 | 17.8
11 | Cc1cccc(C)c1OCC(=O)N[C@@H](Cc1ccccc1)[C@H](O)CN(CC(C)C)S(=O)(=O)c1ccc2nc(NCCN3CCCC3)sc2c1 [Compound 46] | 44.4 | 3.3 | 2.8 | 1.3 | 3.2 | 4.7 | 7.1
12 | CC(C)CN(C[C@@H](O)[C@H](Cc1ccccc1)NC(=O)O[C@H]1CO[C@H]2OCC[C@H]21)S(=O)(=O)c1ccc2nc(N3CCN(C)CC3=O)sc2c1 [Compound 26] | 345.6 | 6.6 | 9.2 | 20.3 | 10.6 | 29.6 | 34.1
13 | CC(C)CN(C[C@@H](O)[C@H](Cc1ccccc1)NC(=O)O[C@H]1CO[C@H]2OCC[C@H]21)S(=O)(=O)c1ccc2nc(NCCCN(C)C)sc2c1 [Compound 22] | 6.0 | 0.6 | 0.4 | 0.4 | 0.4 | 0.3 | 1.4
14 | CC(=O)N(CCN1CCCC1)c1nc2ccc(S(=O)(=O)N(CC(C)C)C[C@@H](O)[C@H](Cc3ccccc3)NC(=O)OCc3cccnc3)cc2s1 [Compound 71] | 321.5 | 2.2 | 7.0 | 2.7 | 5.0 | 29.6 | 79.6
15 | CNCCNc1nc2ccc(S(=O)(=O)N(CC(C)C)C[C@@H](O)[C@H](Cc3ccccc3)NC(=O)O[C@H]3CO[C@H]4OCC[C@H]43)cc2s1 [Compound 23] | 1.2 | 1.0 | 1.0 | 1.2 | 0.9 | 1.1 | 1.1
16 | Cc1cc(C#N)cc(C)c1OCC(=O)N[C@@H](Cc1ccccc1)[C@H](O)CN(CC(C)C)S(=O)(=O)c1ccc2nc(NC(=O)CN3CCCC3)sc2c1 [Compound 75] | 93.6 | 7.4 | 19.4 | 3.6 | 18.7 | 16.3 | 19.0
17 | CC(=O)N(C)c1nc2ccc(S(=O)(=O)N(CC(C)C)C[C@@H](O)[C@H](Cc3ccccc3)NC(=O)OCc3cccnc3)cc2s1 [Compound 81] | 387.6 | 6.1 | 29.6 | 5.6 | 20.4 | 106.8 | 121.0
18 | CC(C)CN(CC(O)C(Cc1ccccc1)NC(=O)OC1CNC(=O)C1)S(=O)(=O)c1ccc2nc(NC(=O)CN(C)C)sc2c1 (centres unmarked) [Compound 36] | 0.2 | 0.5 | 0.2 | 0.6 | 0.2 | 0.2 | 0.2
19 | CC(=O)Nc1nc2ccc(S(=O)(=O)N(CC(C)C)C[C@@H](O)[C@H](Cc3ccccc3)NC(=O)c3cc(N)ccc3C)cc2s1 [Compound 73] | 966.6 | 12.1 | 14.1 | 9.8 | 20.7 | 43.1 | 966.6
20 | Cc1cccc(C)c1OCC(=O)N[C@@H](Cc1ccccc1)[C@H](O)CN(CC(C)C)S(=O)(=O)c1ccc2nc(NCCN(C)C)sc2c1 [Compound 40] | 87.8 | 6.4 | 2.7 | 2.1 | 3.2 | 7.2 | 12.8
